Reference: patent publication US20060058320A1, “[1,2,4] Triazolo[1,5-c]pyrimidine derivatives” (KYOWA HAKKO KOGYO CO., LTD., priority 2002, published 2006)
Read-outs that look alike come from different tables or passages of the source.

Tests used:
adenosine A2A receptor = molecular target: T1, adenosine A2A receptor (Rattus norvegicus, UniProt P30543); test: Adenosine A2A receptor binding test (3H-CGS 21680 binding); details: for inhibition at 0.1 µM: read-out: A2A Receptor inhibition rate (%) at 10^−7 mol/L
T1 construct: from tissue; host or cells: rat corpus striatum membrane preparation
Procedure: The test was carried out according to the method of Bruns et al. [Molecular Pharmacology, vol. 29, p.
Rat corpus striatum was suspended in an ice-cold 50 mmol/L tris(hydroxymethyl)aminomethane hydrochloride (referred to as “Tris HCl” hereinafter) buffer (pH 7.7) using a Polytron homogenizer (produced by Kinematica Co.). The suspension was centrifuged (50,000×g, 10 minutes), and the resulting precipitate was again suspended in the same amount of a 50 mmol/L Tris HCl buffer, followed by centrifugation under the same conditions. The resulting finalprecipitate was again suspended in a 50 mmol/L-Tris HCl buffer [containing 10 mmol/L of magnesium chloride and 0.02 unit/mg tissue of adenosine deaminase (produced by Sigma Co.)] so that the tissue concentration was 5 mg (wet weight)/mL.
The radioactivity on the filter was determined with a liquid scintillation counter (produced by Packard Instrument Co.).
In the equation, X represents Amount of binding in the presence of a medicament, Y represents Amount of nonspecific binding, and Z represents Amount of total binding.

male ddY mice = test: Forced swimming method (measurement of immobility time); type: in vivo; details: orally administered, 10 mg/kg, one hour before the test; versus solvent group (Steel-test)
Procedure: Ten male ddY mice (21 to 26 g in body weight, Japan SLC) per group were used as test animals. During the preliminary feeding period, the animals were bred to be allowed to freely have feed (CRF-1; Oriental Yeast Co., Ltd, Tokyo) and water (tap water) in an animal room at a room temperature for 23±1° C. and a humidity of 55±5%.
Animals showing abnormal reactions in terms of spontaneous activity, myotonia, eyesight and the like were previously excluded. Each test compound was suspended in a 0.3% Tween 80 solution and orally administered one hour before the test. In the negative control group, 10 mL/kg of a 0.3% Tween 80 solution alone was orally administered. The immobility time was measured according to the Porsolt method [Arch. Int. Pharmacodyn., vol. 229, pp. 327-336 (1977)]. Namely, a cylindrical transparent acrylic water tank (10 cm in diameter and 25 cm in height) was filled with water at a temperature between 23±1° C. to a height of 9 cm, and the mice were forced to swim for 6 minutes. When the mice are put into water, they immediately start to swim trying to escape from the tank, but the motion gradually decreases 1 to 2 minutes thereafter. […] In order to reduce the effects of daily rhythm, the test was carried out using 5 of the 10 animals per group in the morning, and the remaining 5 animals in the afternoon. The immobility time was measured by observing 2 animals at the same time without telling the observers distinctions about the control group administered with the solvent alone and doses of the test compounds. Statistical analysis of the results was carried out by a multiple comparison Steel-test between the solvent-administered group and the test compound-administered group.

[1] = test system: CGS 21680-induced catalepsy; test: Activity on CGS 21680-induced catalepsy; type: in vivo, mice; details: for Total score: total catalepsy score of 10 mice (maximum 50 points; 40 points or less = positive), one hour after administration; for inhibition in vivo at 10 mg/kg: Mus musculus, po, read-out: Remission ratio (%)
Outline: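 Male ddY mice, 5 weeks old, ten per group, were dosed orally with compound at 10 mg/kg in 0.3% Tween 80 water, 30 min before CGS 21680 (10 μg/20 μL) was injected into the cerebral ventricle. Catalepsy was scored 1 h after compound dosing by placing forelimbs or hindlimbs on a 4.5 cm stand.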

male SD rats = test: Learned helplessness (LH) model; type: in vivo; details: for escape response: IES-loaded rats, 2 mg/kg orally 1 hour before FR1; for intertrial responses (index of psychomotor stimulant action): versus electric shock loaded control group, 2 mg/kg orally
Procedure: As test animals, 10 to 15 male SD rats (220 to 320 g in body weight, 7 week age, Charles River Japan, Inc., Atsugi) per group were used. During the preliminary feeding period, the animals were bred to be allowed to freely have feed (CRF-1; Oriental Yeast Co., Ltd, Tokyo) and water (tap water) in an animal room at a room temperature of 22 to 24° C. and a humidity of 50 to 60%. Each test compound was orally administered in a dose of 2 mg/kg 1 hour before RF1 (refer to the contents described below) on the second day of the test.
A shuttle box apparatus (TK-401S; produced by UNICOM, Chiba) was used as a learning experimental apparatus. On the first day, the shuttle box was divided into two rooms by setting a partition at its center, and one rat was put in each of the rooms. […] Although each rat was put in the shuttle box for 50 minutes, the charging time of inescapable shock (IES) was set to 25 minutes by computer control using a random duration time (10 to 90 seconds) and random on-off and off-on (10 to 90 seconds).
On the second day, a shuttle box test was carried out by the method of Maier [J. Comp. Physiol. Psychol., vol. 85, pp. 581-592 (1973)] and the method of Geoffroy and Christensen [Drug Dev. Res., vol. 29, pp. 48-55 (1993)] which were slightly modified. The partition at the center of the shuttle box was removed, and the box was divided into two rooms by a hurdle of 2 cm in height instead of the partition. In the shuttle box test, FRI (an electric shock of 0.6 mA was applied to the rat for 5 seconds unless the rat moved to the other room within 5 seconds after the start of buzzer sounds, and when the rat moved to the other room within 5 seconds after the start of buzzer sounds, the floor shock could be avoided, this operation being carried as one trial and repeated 15 times with an interval of 10 seconds between trials.) was carried out, continuously followed by FR2 (an electric shock of 0.6 mA was applied to the rat for 10 seconds, and then an electric shock of 0.6 mA was applied at intervals of 0.5 second for 10 seconds, this operation being carried out as one trial and repeated 15 times with an interval of 15 seconds between trials). Escape reaction was determined by the escape response calculated by the equation below on the assumption that cases showing two escape latency times of less than 10 seconds in FR2 were regarded as successful escape. Escape response (%)=(Number of trials of successful escape/15)×100
Furthermore, migration (intertrial response %) in the box other than the escape reaction observed during a period between trials (resting time) was used as an index of psychomotor stimulant action, the intertrial response being calculated by the following equation. […]

[2] = test system: common marmoset treated with 1-methyl-4-phenyl-1,2,3,6-tetrahydropyridine (MPTP); test: Parkinson's disease model, MPTP-treated common marmoset; type: in vivo; details: symptom score and spontaneous locomotor activity versus solvent-administered group
Procedure: Parkinson's disease is a disease based on the degeneration and cell death of the nigrostriatal dopaminergic neurons. […] These MPTP-treated primates are known as a model of Parkinson's disease [Proceedings of the National Academy of Science USA, vol. 80, p. 4546 (1983)]. […] 57, p. 37 (1985)].
The test was carried out using 4 female and male common marmosets of 2 to 3 year age (300 to 375 g in body weight, Japan CLEA) per group. MPTP (produced by RBI Co.) was dissolved in physiological saline for injection (produced by Otsuka Pharmaceutical Co., Ltd.), and hypodermically administered to the common marmosets once a day for 5 days in a dose of 2.0 mg/kg. Six weeks or more after the administration, animals showing chronic symptoms of Parkinson's disease were used in the test. Each test compound was used by suspending it in an aqueous solution containing 0.3% Tween 80 and 10% sucrose. Also, a solution containing no test compound was used as a control. One hour before the administration of the test compound, the animals to be tested were put into an observation cage (provided with a spontaneous locomotor activity measuring apparatus) to adapt them to the environment. The symptoms of Parkinson's disease were observed from a one-way see through window at intervals of 30 minutes for 8 hours to score the motor disability. The spontaneous locomotor activity was measured at intervals of 30 minutes for 12 hours by a computer-controlled automatic measuring apparatus. The symptoms of Parkinson's disease were decided on the basis of the criteria of each observation item shown below, and the total of the points was used as the score of each animal.
The effect was decided by comparing average scores of the symptoms of Parkinson's disease in 4 animals per group between the test compound-administered group and the solvent-administered group (significance test: Sign-Wilcoxon test). The spontaneous locomotor activity was also decided by comparison between the test compound-administered group and the solvent-administered group.

[3] = test compound 10^−7 mol/L, 3H-CGS 21680 binding, rat corpus striatum
[4] = from total score of test group and control group, 10 mg/kg orally

T1 sequence (P30543 whole entry): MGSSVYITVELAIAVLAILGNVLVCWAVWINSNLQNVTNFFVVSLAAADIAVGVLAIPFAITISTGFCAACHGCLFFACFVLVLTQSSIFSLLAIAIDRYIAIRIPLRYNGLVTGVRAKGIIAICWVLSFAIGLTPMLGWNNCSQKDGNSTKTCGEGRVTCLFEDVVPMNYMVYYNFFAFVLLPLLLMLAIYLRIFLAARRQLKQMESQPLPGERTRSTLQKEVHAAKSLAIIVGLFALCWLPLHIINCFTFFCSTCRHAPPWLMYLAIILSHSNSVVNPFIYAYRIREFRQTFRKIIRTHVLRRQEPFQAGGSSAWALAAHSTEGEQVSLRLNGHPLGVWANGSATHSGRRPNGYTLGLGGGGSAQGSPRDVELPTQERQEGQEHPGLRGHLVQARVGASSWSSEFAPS

## 5-Amino-2-(2-furyl)[1,2,4]triazolo[1,5-c]pyrimidine-7-carboxylic acid (1,2,3,4-tetrahydroisoquinolyl)amide [Compound 94]
Adenosine A2A receptor; [3]
  A2A Receptor inhibition rate (%) at 10^−7 mol/L: 95%
Male ddY mice
  immobility time: significant effect of decreasing the immobility time
[1]; cases with catalepsy score of 4 points or less in 10 cases, 10 mg/kg orally
  Number of animals showing remission: 10
[1]; [4]
  Remission ratio (%): 90%
[1]; 10 mg/kg orally
  Total score: 5

## Nc1nc(CCO)cc2nc(-c3ccco3)nn12 [Compound 67, 5-Amino-2-(2-furyl)-7-(2-hydroxyethyl)[1,2,4]triazolo[1,5-c]pyrimidine]
other
  melting point: 207.2 to 207.8 °C
Adenosine A2A receptor; [3]
  inhibition at 0.1 µM: 91%

## Nc1nc(C2CCN(CC3CC3)CC2)cc2nc(-c3ccco3)nn12 [Compound 71, 5-Amino-7-[1-(cyclopropylmethyl)piperidin-4-yl]-2-(2-furyl)-[1,2,4]triazolo[1,5-c]pyrimidine]
Adenosine A2A receptor; [3]
  inhibition at 0.1 µM: 87%
Male SD rats
  escape response: significantly recover a reduced escape response
  intertrial responses (index of psychomotor stimulant action): no difference
Male ddY mice
  immobility time: significant effect of decreasing the immobility time
[2]
  effect in the common marmoset MPTP-treated Parkinson's disease model: effective

## CC(C)(O)CCN1CC=C(c2cc3nc(-c4ccco4)nn3c(N)n2)CC1 [Compound 76, 5-Amino-7-[1-(3-methyl-3-hydroxybutyl)-1,2,3,6-tetrahydro-pyridin-4-yl]-2-(2-furyl)[1,2,4]triazolo[1,5-c]pyrimidine]
Adenosine A2A receptor
  inhibition at 0.1 µM: 72%
[2]
  effect in the common marmoset MPTP-treated Parkinson's disease model: effective
[1]
  inhibition in vivo at 10 mg/kg: 80%
[1]; 10 mg/kg orally
  Total score: 5

## Nc1nc(C(=O)NCc2cccnc2)cc2nc(-c3ccco3)nn12 [Compound 83, 5-Amino-2-(2-furyl) [1,2,4]triazolo[1,5-c]pyrimidine-7-carboxylic acid (3-pyridylmethyl)amide]
Male SD rats
  escape response: significantly recover a reduced escape response
  intertrial responses (index of psychomotor stimulant action): no difference
Male ddY mice
  immobility time: significant effect of decreasing the immobility time
[1]; [4]
  inhibition in vivo at 10 mg/kg: 96%
[1]; 10 mg/kg orally
  Total score: 2

## CN(CCc1ccccn1)C(=O)c1cc2nc(-c3ccco3)nn2c(N)n1 [Compound 85, 5-Amino-2-(2-furyl)[1,2,4]triazolo[1,5-c]pyrimidine-7-carboxylic acid {N-[2-(2-pyridyl)ethyl]-N-methyl}amide]
Adenosine A2A receptor; [3]
  inhibition at 0.1 µM: 70%
[2]
  effect in the common marmoset MPTP-treated Parkinson's disease model: effective
[1]; [4]
  inhibition in vivo at 10 mg/kg: 94%
[1]; 10 mg/kg orally
  Total score: 3

## CC(C)NC(=O)c1cc2nc(-c3ccco3)nn2c(N)n1 [Compound 89, 5-Amino-2-(2-furyl) [1,2,4]triazolo[1,5-c]pyrimidine-7-carboxylic acid isopropylamide]
Adenosine A2A receptor; [3]
  inhibition at 0.1 µM: 89%
Male ddY mice
  immobility time: significant effect of decreasing the immobility time
[1]; [4]
  inhibition in vivo at 10 mg/kg: 84%
[1]; 10 mg/kg orally
  Total score: 8
